Test results taken from the supplement of paper PMC6045584.
± gives the standard deviation of the averaged measurements.

Key:
IMATINIB = compound: Cc1ccc(NC(=O)c2ccc(CN3CCN(C)CC3)cc2)cc1Nc1nccc(-c2cccnc2)n1 [IMATINIB]; experiment: surviving fraction relative to DMSO-only wells; higher = less growth inhibition; conditions: exposure time: 5 days
Method in brief: (§1)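 In 384-well plates, 250–500 log-phase tumour cells per well were given 24 hours before five days of continuous exposure to inhibitors at 0.5, 1, 5, 10, 50, 100, 500 and 1000 nM. Surviving fraction is luminescence from CellTiter-Glo, normalised to the median of wells containing DMSO alone. Reading took place after 10 minutes at room temperature.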

CABOZANTINIB = compound: COc1cc2nccc(Oc3ccc(NC(=O)C4(C(=O)Nc5ccc(F)cc5)CC4)cc3)c2cc1OC [CABOZANTINIB]; experiment: as above; conditions: exposure time: 5 days
Method in brief: as §1

Test System	surviving fraction (IMATINIB; 0.5 nM)	surviving fraction (IMATINIB; 1 nM)	surviving fraction (IMATINIB; 5 nM)	surviving fraction (IMATINIB; 10 nM)	surviving fraction (IMATINIB; 50 nM)	surviving fraction (IMATINIB; 100 nM)	surviving fraction (IMATINIB; 1000 nM)	surviving fraction (CABOZANTINIB; 0.5 nM)	surviving fraction (CABOZANTINIB; 1 nM)	surviving fraction (CABOZANTINIB; 5 nM)	surviving fraction (CABOZANTINIB; 10 nM)	surviving fraction (CABOZANTINIB; 50 nM)	surviving fraction (CABOZANTINIB; 100 nM)	surviving fraction (CABOZANTINIB; 500 nM)	surviving fraction (CABOZANTINIB; 1000 nM)	surviving fraction (IMATINIB; 500 nM)
OSHN BONE	1.13 ± 0.024	1.126 ± 0.0095	1.1 ± 0.033	1.12 ± 0.012	1.16 ± 0.013	1.14 ± 0.017	1.1 ± 0.051	1.033 ± 0.005	1.024 ± 0.0035	1.03 ± 0.011	1.02 ± 0.0032	1.006 ± 0.0085	0.958 ± 0.02	0.928 ± 0.015	0.908 ± 0.027	
SYO1 SYNOVIAL	1.03 ± 0.05	1.02 ± 0.028	0.987 ± 0.037	0.955 ± 0.031	0.921 ± 0.035	0.898 ± 0.017	0.888 ± 0.023	0.92 ± 0.027	0.938 ± 0.042	0.929 ± 0.037	0.859 ± 0.02	0.807 ± 0.022	0.818 ± 0.044	0.721 ± 0.041	0.694 ± 0.031	0.88 ± 0.056
OS25HAL BONE	1.08 ± 0.041	1.04 ± 0.035	1.03 ± 0.021	1.06 ± 0.027	1.08 ± 0.013	1.1 ± 0.017		0.957 ± 0.017	0.963 ± 0.02	1.02 ± 0.021	0.93 ± 0.022	0.941 ± 0.041	0.875 ± 0.029	0.8397 ± 0.0068	0.806 ± 0.068	
SG31 HEADNECK	1.16 ± 0.19	1.33 ± 0.14	1.36 ± 0.36	1.16 ± 0.33	1.07 ± 0.1	0.994 ± 0.022	1.18 ± 0.16	1.1 ± 0.21	1.07 ± 0.2	0.981 ± 0.073	0.97 ± 0.14	1.07 ± 0.24	0.97 ± 0.07	1.1 ± 0.067	1.11 ± 0.082	1.33 ± 0.21
NCIH441 LUNG	1.175 ± 0.0068	1.14 ± 0.076		1.14 ± 0.053	1.03 ± 0.12	1.06 ± 0.082	1.16 ± 0.15	1.07 ± 0.042	1.02 ± 0.038	1.07 ± 0.036	0.963 ± 0.056	1.07 ± 0.028	1.06 ± 0.021	1.01 ± 0.031	0.845 ± 0.019	
HOS BONE	1.03 ± 0.02		1.04 ± 0.028	1.047 ± 0.0078		1.06 ± 0.023		1.02 ± 0.011	1.001 ± 0.001	1.02 ± 0.015	0.9757 ± 0.008	1.015 ± 0.0092	0.984 ± 0.02	0.924 ± 0.019	0.89 ± 0.014	1.03 ± 0.037
SAOS2 BONE	1.14 ± 0.031	1.14 ± 0.056		1.22 ± 0.063	1.22 ± 0.079	1.2 ± 0.075	1.17 ± 0.097	1.13 ± 0.038	1.12 ± 0.069	1.18 ± 0.12	1.14 ± 0.015	1.17 ± 0.14	1.14 ± 0.14	0.993 ± 0.073	1.01 ± 0.14	1.16 ± 0.029
DU4475 BREAST	1.04 ± 0.18	1.1 ± 0.028		1.11 ± 0.13	1.09 ± 0.15		1.09 ± 0.1	0.782 ± 0.12	0.874 ± 0.076	0.868 ± 0.053	0.93 ± 0.16	0.899 ± 0.19	0.781 ± 0.085	0.908 ± 0.096	1.03 ± 0.12	1.21 ± 0.049
CAL120 BREAST	0.995 ± 0.073	0.978 ± 0.041	0.994 ± 0.091		1.03 ± 0.021	0.97 ± 0.045	0.992 ± 0.07	0.918 ± 0.082	0.924 ± 0.054	0.941 ± 0.056	0.921 ± 0.051	0.968 ± 0.052	0.923 ± 0.019	0.893 ± 0.045	0.886 ± 0.026	1.04 ± 0.044
MDAMB157 BREAST		1.01 ± 0.028	1.02 ± 0.018			0.939 ± 0.021	0.855 ± 0.11	0.933 ± 0.056	0.953 ± 0.049	1 ± 0.025	0.959 ± 0.031	0.994 ± 0.048	0.891 ± 0.054	0.798 ± 0.072	0.733 ± 0.03	0.956 ± 0.018
SG43 HEADNECK	1.16 ± 0.41	1.07 ± 0.36	0.895 ± 0.2	1.03 ± 0.23	1.01 ± 0.2	0.901 ± 0.27	1.16 ± 0.33	0.887 ± 0.051	0.863 ± 0.15	0.883 ± 0.019	0.788 ± 0.11	0.759 ± 0.18	0.737 ± 0.2	0.757 ± 0.056	0.708 ± 0.072	1.11 ± 0.13
MDAMB231 BREAST	0.9973 ± 0.0088	1.03 ± 0.04	1.01 ± 0.039	1.03 ± 0.022	1 ± 0.058	1.01 ± 0.027	0.96 ± 0.024	0.853 ± 0.013	0.9576 ± 0.0047	0.969 ± 0.0068	0.978 ± 0.024	1.01 ± 0.018	1.005 ± 0.0054	0.908 ± 0.03	0.849 ± 0.019	0.968 ± 0.042
BT549 BREAST	1.15 ± 0.1	1.13 ± 0.068		1.12 ± 0.044		1.17 ± 0.04	1.1 ± 0.15	1.05 ± 0.047	1.02 ± 0.024	1.07 ± 0.034	1.02 ± 0.2	1.22 ± 0.017	1.13 ± 0.16	1.12 ± 0.18	1.16 ± 0.14	1.21 ± 0.11
VP229 BREAST	1.29 ± 0.17	1.22 ± 0.091	1.12 ± 0.098	1.2 ± 0.3	1.35 ± 0.1		1.27 ± 0.12	1.08 ± 0.1	1.04 ± 0.14	1.04 ± 0.15	0.952 ± 0.18	1.15 ± 0.2	0.998 ± 0.12	1.09 ± 0.088	0.966 ± 0.061	1.16 ± 0.064
CASKI CERVIX	0.935 ± 0.028	0.9783 ± 0.0081	1.01 ± 0.048	0.962 ± 0.029	1.06 ± 0.042	1.06 ± 0.06	1 ± 0.04	0.969 ± 0.021	0.914 ± 0.05	0.942 ± 0.021	0.907 ± 0.063	0.959 ± 0.031	0.907 ± 0.021	0.953 ± 0.038	0.768 ± 0.027	0.919 ± 0.037
BT20 BREAST	1.21 ± 0.064	1.22 ± 0.12		1.16 ± 0.062		1.14 ± 0.033	1.46 ± 0.035	1.02 ± 0.047	1.09 ± 0.097	1.05 ± 0.069	1.2 ± 0.08	1.11 ± 0.012	1.19 ± 0.11	1.19 ± 0.1	1.17 ± 0.18	1.45 ± 0.19
MG63 BONE	1.08 ± 0.028	1.05 ± 0.029	1.1 ± 0.03	1.09 ± 0.035	1.09 ± 0.053	1.08 ± 0.034		0.966 ± 0.019	1.02 ± 0.042	1.05 ± 0.021	1.03 ± 0.032	1.03 ± 0.019	0.946 ± 0.037	0.724 ± 0.011	0.696 ± 0.031	
